{"source": "paper PMC10046369", "about": "“Low-Affinity/High-Selectivity Dopamine Transport Inhibition Sufficient to Rescue Cognitive Functions in the Aging Rat” (Biomolecules, 2023)", "assay_in_all_cases": "biochemical", "design_in_all_cases": "KINOMEscan competition binding panel, per cent of control", "details_in_all_cases": "read-out: %Ctrl @ 2800nM", "key": {"AKT3": {"target": "AKT3 (Homo sapiens, UniProt Q9Y243)", "method_in_brief": "(§1)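 Values are expressed as percent of control, calculated as ((test − positive control)/(negative control − positive control)) × 100, so lower numbers mean stronger hits. Binding was measured by KINOMEscan competition assay in a 450-kinase human panel including disease mutants, using the contractor's validated protocol.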"}, "CAMK2D": {"target": "CAMK2D (Homo sapiens, UniProt Q13557)", "sequence (Q13557 whole entry)": "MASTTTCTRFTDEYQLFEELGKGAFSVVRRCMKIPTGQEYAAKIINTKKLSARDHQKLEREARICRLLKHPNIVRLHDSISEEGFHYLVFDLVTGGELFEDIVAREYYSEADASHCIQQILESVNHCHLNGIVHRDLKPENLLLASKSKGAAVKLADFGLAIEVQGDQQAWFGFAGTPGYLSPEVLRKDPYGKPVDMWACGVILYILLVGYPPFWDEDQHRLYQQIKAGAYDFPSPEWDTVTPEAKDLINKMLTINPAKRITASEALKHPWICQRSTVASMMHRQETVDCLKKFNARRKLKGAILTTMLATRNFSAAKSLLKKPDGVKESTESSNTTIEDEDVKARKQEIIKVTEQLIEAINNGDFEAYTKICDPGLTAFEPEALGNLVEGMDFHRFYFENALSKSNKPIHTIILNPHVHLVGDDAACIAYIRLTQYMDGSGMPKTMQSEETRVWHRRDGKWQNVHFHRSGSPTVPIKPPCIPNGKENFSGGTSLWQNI", "method_in_brief": "as §1"}, "CDK3": {"target": "CDK3 (Homo sapiens, UniProt Q00526)", "method_in_brief": "as §1"}, "CDK9": {"target": "CDK9 (Homo sapiens, UniProt P50750)", "method_in_brief": "as §1"}, "CDKL5": {"target": "CDKL5 (Homo sapiens, UniProt O76039)", "method_in_brief": "as §1"}, "EGFR(G719C)": {"target": "EGFR(G719C) (Homo sapiens, UniProt P00533, G719C)", "method_in_brief": "as §1"}, "EPHA6": {"target": "EPHA6 (Homo sapiens, UniProt Q9UF33)", "sequence (Q9UF33 whole entry)": "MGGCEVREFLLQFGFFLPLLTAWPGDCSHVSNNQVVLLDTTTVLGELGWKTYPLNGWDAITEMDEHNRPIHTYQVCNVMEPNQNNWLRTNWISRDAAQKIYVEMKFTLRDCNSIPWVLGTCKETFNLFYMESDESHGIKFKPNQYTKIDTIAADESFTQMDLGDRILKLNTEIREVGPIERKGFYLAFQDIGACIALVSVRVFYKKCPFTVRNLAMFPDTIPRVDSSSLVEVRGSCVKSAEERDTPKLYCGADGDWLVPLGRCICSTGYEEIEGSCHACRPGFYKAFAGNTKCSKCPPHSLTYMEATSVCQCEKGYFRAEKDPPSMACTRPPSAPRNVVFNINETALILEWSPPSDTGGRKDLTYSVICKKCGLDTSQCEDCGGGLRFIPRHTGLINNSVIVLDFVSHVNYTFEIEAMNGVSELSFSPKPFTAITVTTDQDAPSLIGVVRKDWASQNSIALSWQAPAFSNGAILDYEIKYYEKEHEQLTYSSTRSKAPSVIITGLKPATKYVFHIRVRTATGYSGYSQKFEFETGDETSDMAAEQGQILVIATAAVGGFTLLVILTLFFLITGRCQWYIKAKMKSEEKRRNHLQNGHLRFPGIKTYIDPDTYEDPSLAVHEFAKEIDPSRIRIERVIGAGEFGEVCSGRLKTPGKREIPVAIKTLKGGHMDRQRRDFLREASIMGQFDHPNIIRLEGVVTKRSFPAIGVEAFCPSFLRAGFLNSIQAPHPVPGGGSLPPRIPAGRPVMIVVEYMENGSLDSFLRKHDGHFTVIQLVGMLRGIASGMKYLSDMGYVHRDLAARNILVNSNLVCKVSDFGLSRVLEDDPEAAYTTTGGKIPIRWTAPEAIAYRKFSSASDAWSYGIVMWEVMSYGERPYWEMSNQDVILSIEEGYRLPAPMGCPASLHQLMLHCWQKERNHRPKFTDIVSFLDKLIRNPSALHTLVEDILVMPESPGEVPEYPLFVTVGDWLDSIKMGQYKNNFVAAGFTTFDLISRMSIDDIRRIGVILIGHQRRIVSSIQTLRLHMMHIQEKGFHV", "method_in_brief": "as §1"}, "GRK7": {"target": "GRK7 (Homo sapiens, UniProt Q8WTQ7)", "method_in_brief": "as §1"}, "HIPK1": {"target": "HIPK1 (Homo sapiens, UniProt Q86Z02)", "sequence (Q86Z02 whole entry)": "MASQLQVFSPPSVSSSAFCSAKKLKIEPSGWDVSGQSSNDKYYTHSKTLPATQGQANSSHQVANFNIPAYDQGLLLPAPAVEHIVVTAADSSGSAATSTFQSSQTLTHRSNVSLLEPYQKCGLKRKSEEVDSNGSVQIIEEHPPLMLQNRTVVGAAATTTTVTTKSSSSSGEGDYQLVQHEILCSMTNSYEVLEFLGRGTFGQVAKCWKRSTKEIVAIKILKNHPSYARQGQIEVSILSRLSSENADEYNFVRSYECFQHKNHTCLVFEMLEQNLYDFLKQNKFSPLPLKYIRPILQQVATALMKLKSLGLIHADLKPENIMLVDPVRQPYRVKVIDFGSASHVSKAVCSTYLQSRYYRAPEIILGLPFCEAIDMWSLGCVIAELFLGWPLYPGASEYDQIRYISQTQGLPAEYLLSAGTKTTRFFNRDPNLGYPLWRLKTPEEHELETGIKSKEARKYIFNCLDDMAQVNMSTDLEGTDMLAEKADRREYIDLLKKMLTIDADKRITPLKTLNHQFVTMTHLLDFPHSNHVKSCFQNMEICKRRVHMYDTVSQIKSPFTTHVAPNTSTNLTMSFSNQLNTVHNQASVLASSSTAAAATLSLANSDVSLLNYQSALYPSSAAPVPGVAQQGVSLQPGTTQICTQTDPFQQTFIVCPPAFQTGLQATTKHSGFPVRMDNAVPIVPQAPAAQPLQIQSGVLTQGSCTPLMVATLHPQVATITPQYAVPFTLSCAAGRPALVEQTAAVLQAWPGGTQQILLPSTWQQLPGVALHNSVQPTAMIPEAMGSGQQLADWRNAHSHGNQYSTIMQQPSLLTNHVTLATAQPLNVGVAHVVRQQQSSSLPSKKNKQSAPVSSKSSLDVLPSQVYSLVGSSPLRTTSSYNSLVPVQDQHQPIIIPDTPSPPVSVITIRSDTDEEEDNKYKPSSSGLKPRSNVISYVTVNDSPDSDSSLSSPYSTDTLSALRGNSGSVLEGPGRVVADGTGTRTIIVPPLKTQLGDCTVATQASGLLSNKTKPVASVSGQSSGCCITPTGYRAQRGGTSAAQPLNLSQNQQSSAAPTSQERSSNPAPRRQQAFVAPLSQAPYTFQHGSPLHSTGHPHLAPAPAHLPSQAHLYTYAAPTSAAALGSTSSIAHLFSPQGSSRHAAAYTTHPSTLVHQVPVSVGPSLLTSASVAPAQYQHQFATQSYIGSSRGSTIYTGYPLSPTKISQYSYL", "method_in_brief": "as §1"}, "IKK-epsilon": {"target": "T1, IKK-epsilon (Homo sapiens, UniProt Q14164)", "T1 construct": "gene IKBKE", "method_in_brief": "as §1"}, "INSR": {"target": "INSR (Homo sapiens, UniProt P06213)", "method_in_brief": "as §1"}, "JNK1": {"target": "T2, JNK1 (Homo sapiens, UniProt P45983)", "T2 construct": "gene MAPK8", "method_in_brief": "as §1"}, "KIT-autoinhibited": {"target": "KIT-autoinhibited (Homo sapiens, UniProt P10721)", "method_in_brief": "as §1"}, "LZK": {"target": "T3, LZK (Homo sapiens, UniProt O43283)", "T3 construct": "gene MAP3K13", "method_in_brief": "as §1"}, "MAP3K1": {"target": "MAP3K1 (Homo sapiens, UniProt Q13233)", "method_in_brief": "as §1"}, "MERTK": {"target": "MERTK (Homo sapiens, UniProt Q12866)", "sequence (Q12866 whole entry)": "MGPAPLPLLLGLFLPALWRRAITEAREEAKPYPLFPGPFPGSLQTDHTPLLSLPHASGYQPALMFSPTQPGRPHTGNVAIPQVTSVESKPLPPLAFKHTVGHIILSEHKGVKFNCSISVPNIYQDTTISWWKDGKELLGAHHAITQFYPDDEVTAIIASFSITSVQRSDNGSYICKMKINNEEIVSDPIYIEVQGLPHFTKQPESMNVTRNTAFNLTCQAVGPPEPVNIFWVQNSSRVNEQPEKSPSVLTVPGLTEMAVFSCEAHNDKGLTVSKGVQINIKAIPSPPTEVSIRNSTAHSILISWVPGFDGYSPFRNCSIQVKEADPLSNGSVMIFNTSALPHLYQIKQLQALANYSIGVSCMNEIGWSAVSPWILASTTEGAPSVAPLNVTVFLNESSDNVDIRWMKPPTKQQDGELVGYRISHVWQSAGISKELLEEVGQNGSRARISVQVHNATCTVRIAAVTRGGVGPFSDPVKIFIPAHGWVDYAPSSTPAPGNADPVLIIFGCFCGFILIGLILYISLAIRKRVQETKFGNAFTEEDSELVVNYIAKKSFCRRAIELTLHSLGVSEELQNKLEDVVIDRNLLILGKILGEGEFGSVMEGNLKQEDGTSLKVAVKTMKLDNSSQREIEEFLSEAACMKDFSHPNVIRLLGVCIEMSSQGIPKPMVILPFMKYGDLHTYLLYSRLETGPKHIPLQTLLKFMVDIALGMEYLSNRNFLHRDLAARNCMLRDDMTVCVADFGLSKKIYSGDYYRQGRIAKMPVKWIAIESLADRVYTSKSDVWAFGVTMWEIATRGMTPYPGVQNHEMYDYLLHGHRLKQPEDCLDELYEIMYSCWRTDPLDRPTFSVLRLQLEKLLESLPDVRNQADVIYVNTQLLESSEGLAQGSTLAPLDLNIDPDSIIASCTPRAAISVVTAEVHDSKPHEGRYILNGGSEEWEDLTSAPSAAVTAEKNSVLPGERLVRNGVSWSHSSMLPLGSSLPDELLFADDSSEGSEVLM", "method_in_brief": "as §1"}, "MKNK1": {"target": "MKNK1 (Homo sapiens, UniProt Q9BUB5)", "method_in_brief": "as §1"}, "MST1R": {"target": "MST1R (Homo sapiens, UniProt Q04912)", "method_in_brief": "as §1"}, "MST4": {"target": "T4, MST4 (Homo sapiens, UniProt Q9P289)", "T4 construct": "gene STK26", "T4 sequence (Q9P289 whole entry)": "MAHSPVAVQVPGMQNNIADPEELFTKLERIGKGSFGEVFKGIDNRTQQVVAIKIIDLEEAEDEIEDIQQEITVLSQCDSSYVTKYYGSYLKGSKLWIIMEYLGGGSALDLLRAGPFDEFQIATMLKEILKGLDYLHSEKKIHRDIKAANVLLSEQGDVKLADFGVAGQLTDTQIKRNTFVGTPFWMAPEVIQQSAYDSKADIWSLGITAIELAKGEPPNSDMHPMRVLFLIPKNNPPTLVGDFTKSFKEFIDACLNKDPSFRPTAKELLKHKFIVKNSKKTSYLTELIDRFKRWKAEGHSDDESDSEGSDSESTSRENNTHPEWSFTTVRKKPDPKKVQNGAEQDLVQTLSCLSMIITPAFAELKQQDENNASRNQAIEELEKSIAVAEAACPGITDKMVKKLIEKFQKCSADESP", "method_in_brief": "as §1"}, "MYO3A": {"target": "MYO3A (Homo sapiens, UniProt Q8NEV4)", "method_in_brief": "as §1"}, "MYO3B": {"target": "MYO3B (Homo sapiens, UniProt Q8WXR4)", "method_in_brief": "as §1"}, "PIM1": {"target": "PIM1 (Homo sapiens, UniProt P11309)", "sequence (P11309 whole entry)": "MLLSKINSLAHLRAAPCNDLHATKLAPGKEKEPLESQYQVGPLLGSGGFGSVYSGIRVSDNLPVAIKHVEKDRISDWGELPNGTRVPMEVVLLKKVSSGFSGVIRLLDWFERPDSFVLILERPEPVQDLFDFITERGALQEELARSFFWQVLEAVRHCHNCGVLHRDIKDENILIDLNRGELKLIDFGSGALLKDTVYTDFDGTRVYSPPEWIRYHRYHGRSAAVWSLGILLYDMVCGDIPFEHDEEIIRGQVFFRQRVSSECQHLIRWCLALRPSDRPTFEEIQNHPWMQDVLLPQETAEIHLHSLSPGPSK", "method_in_brief": "as §1"}, "PIP5K1C": {"target": "PIP5K1C (Homo sapiens, UniProt O60331)", "method_in_brief": "as §1"}, "PIP5K2C": {"target": "T5, PIP5K2C (Homo sapiens, UniProt Q8TBX8)", "T5 construct": "gene PIP4K2C", "T5 sequence (Q8TBX8 whole entry)": "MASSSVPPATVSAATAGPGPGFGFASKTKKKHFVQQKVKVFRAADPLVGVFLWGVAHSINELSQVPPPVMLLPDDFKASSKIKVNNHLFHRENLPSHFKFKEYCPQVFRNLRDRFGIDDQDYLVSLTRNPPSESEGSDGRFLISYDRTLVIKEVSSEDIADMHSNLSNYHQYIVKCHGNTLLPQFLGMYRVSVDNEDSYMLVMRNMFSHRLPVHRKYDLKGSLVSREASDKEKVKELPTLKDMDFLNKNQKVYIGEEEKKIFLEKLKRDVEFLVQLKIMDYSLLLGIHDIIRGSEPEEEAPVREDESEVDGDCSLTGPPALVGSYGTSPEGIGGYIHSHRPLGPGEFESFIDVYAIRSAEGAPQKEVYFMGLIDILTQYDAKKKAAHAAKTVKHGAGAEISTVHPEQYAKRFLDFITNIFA", "method_in_brief": "as §1"}, "PRP4": {"target": "T6, PRP4 (Homo sapiens, UniProt Q13523)", "T6 construct": "gene PRPF4B", "method_in_brief": "as §1"}, "SNRK": {"target": "SNRK (Homo sapiens, UniProt Q9NRH2)", "method_in_brief": "as §1"}, "SRPK1": {"target": "SRPK1 (Homo sapiens, UniProt Q96SB4)", "method_in_brief": "as §1"}}}
{"molecule": "[O-][S@@+](Cc1cncs1)C(c1ccccc1)c1ccccc1", "note": "[S-CE-123, (S)-5-((Benzhydrylsulfinyl)Methyl)Thiazole]", "values": [{"measurement": "remaining binding at 2.8 µM", "setting": "AKT3", "value": 99, "unit": "%"}, {"measurement": "remaining binding at 2.8 µM", "setting": "CAMK2D", "value": 88, "unit": "%"}, {"measurement": "remaining binding at 2.8 µM", "setting": "CDK3", "value": 100, "unit": "%"}, {"measurement": "remaining binding at 2.8 µM", "setting": "CDK9", "value": 92, "unit": "%"}, {"measurement": "remaining binding at 2.8 µM", "setting": "CDKL5", "value": 97, "unit": "%"}, {"measurement": "remaining binding at 2.8 µM", "setting": "EGFR(G719C)", "value": 74, "unit": "%"}, {"measurement": "remaining binding at 2.8 µM", "setting": "EPHA6", "value": 100, "unit": "%"}, {"measurement": "remaining binding at 2.8 µM", "setting": "GRK7", "value": 90, "unit": "%"}, {"measurement": "remaining binding at 2.8 µM", "setting": "HIPK1", "value": 90, "unit": "%"}, {"measurement": "remaining binding at 2.8 µM", "setting": "IKK-epsilon", "value": 98, "unit": "%"}, {"measurement": "remaining binding at 2.8 µM", "setting": "INSR", "value": 100, "unit": "%"}, {"measurement": "remaining binding at 2.8 µM", "setting": "JNK1", "value": 67, "unit": "%"}, {"measurement": "remaining binding at 2.8 µM", "setting": "KIT-autoinhibited", "value": 86, "unit": "%"}, {"measurement": "remaining binding at 2.8 µM", "setting": "LZK", "value": 94, "unit": "%"}, {"measurement": "remaining binding at 2.8 µM", "setting": "MAP3K1", "value": 85, "unit": "%"}, {"measurement": "remaining binding at 2.8 µM", "setting": "MERTK", "value": 63, "unit": "%"}, {"measurement": "remaining binding at 2.8 µM", "setting": "MKNK1", "value": 96, "unit": "%"}, {"measurement": "remaining binding at 2.8 µM", "setting": "MST1R", "value": 93, "unit": "%"}, {"measurement": "remaining binding at 2.8 µM", "setting": "MST4", "value": 100, "unit": "%"}, {"measurement": "remaining binding at 2.8 µM", "setting": "MYO3A", "value": 96, "unit": "%"}, {"measurement": "remaining binding at 2.8 µM", "setting": "MYO3B", "value": 52, "unit": "%"}, {"measurement": "remaining binding at 2.8 µM", "setting": "PIM1", "value": 100, "unit": "%"}, {"measurement": "remaining binding at 2.8 µM", "setting": "PIP5K1C", "value": 100, "unit": "%"}, {"measurement": "remaining binding at 2.8 µM", "setting": "PIP5K2C", "value": 100, "unit": "%"}, {"measurement": "remaining binding at 2.8 µM", "setting": "PRP4", "value": 92, "unit": "%"}, {"measurement": "remaining binding at 2.8 µM", "setting": "SNRK", "value": 98, "unit": "%"}, {"measurement": "remaining binding at 2.8 µM", "setting": "SRPK1", "value": 92, "unit": "%"}]}
